Laboratory results reported in patent publication US20240270762A1, “PENICILLIN-BINDING PROTEIN INHIBITORS” (priority 2021, published 2024).
Converted amounts (≈) assume the structure as drawn.

Legend:
A. baumannii ATCC 17978 = assay: microbe, parasite or virus in culture; type: cell-based; conditions: Acinetobacter baumannii, ATCC17978, read-out: MIC, A. baumannii ATCC 17978
A. baumannii CDC-0033 = assay: microbe, parasite or virus in culture; type: cell-based; conditions: Acinetobacter baumannii, CDC0033, read-out: MIC, A. baumannii CDC-0033
[1] = biological target: T1, PBP1a from Acinetobacter baumannii (ATCC 19606) (Acinetobacter baumannii, UniProt A0ABX6CK30); assay: Bocillin-FL fluorescence polarization competition binding, A. baumannii PBP1a; conditions: fluorescence polarization competition binding assay using Bocillin-FL; read-out: A. baumannii PBP1a Potency
T1 sequence (A0ABX6CK30 1-851): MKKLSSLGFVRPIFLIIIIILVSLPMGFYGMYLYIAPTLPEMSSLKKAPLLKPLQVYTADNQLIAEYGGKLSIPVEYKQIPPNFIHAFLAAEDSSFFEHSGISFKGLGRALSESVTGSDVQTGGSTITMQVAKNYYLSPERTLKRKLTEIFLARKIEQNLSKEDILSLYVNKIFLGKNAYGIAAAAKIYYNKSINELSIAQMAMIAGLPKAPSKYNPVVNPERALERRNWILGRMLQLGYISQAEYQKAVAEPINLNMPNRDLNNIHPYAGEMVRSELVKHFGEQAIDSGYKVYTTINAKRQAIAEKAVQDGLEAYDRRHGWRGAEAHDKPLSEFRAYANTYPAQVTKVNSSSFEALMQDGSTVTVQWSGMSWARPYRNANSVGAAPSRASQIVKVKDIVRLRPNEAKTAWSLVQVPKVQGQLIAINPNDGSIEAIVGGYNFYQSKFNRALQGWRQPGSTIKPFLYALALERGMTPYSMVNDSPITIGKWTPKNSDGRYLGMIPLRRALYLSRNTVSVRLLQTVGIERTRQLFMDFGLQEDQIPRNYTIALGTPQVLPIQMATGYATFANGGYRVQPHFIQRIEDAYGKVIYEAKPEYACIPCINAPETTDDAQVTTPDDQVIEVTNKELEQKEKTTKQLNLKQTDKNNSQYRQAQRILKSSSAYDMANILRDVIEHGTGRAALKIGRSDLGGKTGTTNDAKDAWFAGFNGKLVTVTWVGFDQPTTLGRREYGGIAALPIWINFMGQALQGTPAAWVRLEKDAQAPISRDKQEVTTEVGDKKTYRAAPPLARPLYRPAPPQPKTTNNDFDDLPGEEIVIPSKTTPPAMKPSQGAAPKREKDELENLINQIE
How it was run: (§1)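 Purified PBP was preincubated with inhibitor (E. coli PBP3 1.5 μM, 30 min; P. aeruginosa PBP3 0.75 μM, A. baumannii PBP3 0.2 μM and PBP1a 1 μM, 15 min), then Bocillin-FL (0.1 μM; 0.05 μM for PBP1a) added and FP read up to 60 min. EC50 = 50% loss of bound probe.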

[2] = test system: P. aeruginosa (ΔmexAB-oprM); assay: Broth microdilution MIC in iron-depleted CAMHB (IDM); type: cell-based; conditions: Pseudomonas aeruginosa; iron-depleted CAMHB (IDM); […]; read-out: Minimum inhibitory concentration, P. aeruginosa ΔmexAB-oprM
[3] = biological target: T2, PBP3 from Escherichia coli (K-12) (Escherichia coli, UniProt P0AD68); assay: Bocillin-FL fluorescence polarization competition binding, E. coli PBP3
T2 construct: made in house
How it was run: as §1

N. gonorrhoeae WHO Z = assay: Liquid broth MIC in Fastidious broth; conditions: Neisseria gonorrhoeae, read-out: Minimum Inhibitory Concentration (MIC), N. gonorrhoeae WHO Z
N. gonorrhoeae WHO K = assay: Liquid broth MIC in Fastidious broth; conditions: Neisseria gonorrhoeae, read-out: Minimum Inhibitory Concentration (MIC), N. gonorrhoeae WHO K
A. baumannii ATCC 19606 = assay: microbe, parasite or virus in culture; type: cell-based; conditions: Acinetobacter baumannii, ATCC19606, read-out: MIC, A. baumannii ATCC 19606

T2 sequence (P0AD68 1-577): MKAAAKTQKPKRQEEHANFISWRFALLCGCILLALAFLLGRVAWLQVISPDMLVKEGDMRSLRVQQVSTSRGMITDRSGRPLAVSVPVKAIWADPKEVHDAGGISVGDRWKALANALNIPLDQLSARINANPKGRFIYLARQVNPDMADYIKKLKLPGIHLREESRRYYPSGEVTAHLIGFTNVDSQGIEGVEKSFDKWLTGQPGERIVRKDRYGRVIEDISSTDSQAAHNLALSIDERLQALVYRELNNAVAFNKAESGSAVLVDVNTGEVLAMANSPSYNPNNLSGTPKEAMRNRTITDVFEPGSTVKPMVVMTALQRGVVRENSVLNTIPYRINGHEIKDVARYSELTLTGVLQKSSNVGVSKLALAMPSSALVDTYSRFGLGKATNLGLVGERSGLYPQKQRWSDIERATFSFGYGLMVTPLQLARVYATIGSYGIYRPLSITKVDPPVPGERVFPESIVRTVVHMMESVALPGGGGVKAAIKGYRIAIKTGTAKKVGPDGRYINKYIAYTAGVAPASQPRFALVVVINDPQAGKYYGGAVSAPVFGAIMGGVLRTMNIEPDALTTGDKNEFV

Row | SMILES | MIC (A. baumannii ATCC 17978) | MIC (A. baumannii CDC-0033) | IC50 [1] | MIC [2] | EC50 [3] | MIC (N. gonorrhoeae WHO Z) | MIC (N. gonorrhoeae WHO K) | MIC (A. baumannii ATCC 19606)
1 | O=C(NCCN1CCN(C(=O)NC(C(=O)N[C@H]2Cc3ccc(F)c(C(=O)O)c3OB2O)c2cc(F)c(O)c(O)c2Cl)C(=O)C1=O)c1cccnc1 (stereo partly drawn) [Example 217, (3R)-3-(2-(2-chloro-5-fluoro-3,4-dihydroxyphenyl)-2-(4-(2-(nicotinamido)ethyl)-2,3-dioxopiperazine-1-carboxamido)acetamido)-7-fluoro-2-hydroxy-3,4-dihydro-2H-benzo[e][1,2]oxaborinine-8-carboxylic acid] | < 1 µg/mL | 8 to 16 µg/mL (≈ 10.9 to 21.9 µM) | > 250 µM | < 1 µg/mL | < 10 µM | 16 to 32 µg/mL (≈ 21.9 to 43.8 µM) | > 64 µg/mL | 2 to 4 µg/mL (≈ 2.74 to 5.47 µM)
2 | O=C(NCCN1CCN(C(=O)NC(C(=O)N[C@H]2Cc3ccc(F)c(C(=O)O)c3OB2O)c2cc(F)c(O)c(O)c2Cl)C(=O)C1=O)c1nccs1 (stereo partly drawn) [Example 218, (3R)-3-(2-(2-chloro-5-fluoro-3,4-dihydroxyphenyl)-2-(2,3-dioxo-4-(2-(thiazole-2-carboxamido)ethyl)piperazine-1-carboxamido)acetamido)-7-fluoro-2-hydroxy-3,4-dihydro-2H-benzo[e][1,2]oxaborinine-8-carboxylic acid] | < 1 µg/mL | 8 to 16 µg/mL (≈ 10.9 to 21.7 µM) | > 250 µM | < 1 µg/mL | < 10 µM | > 64 µg/mL | > 64 µg/mL | 2 to 4 µg/mL (≈ 2.71 to 5.43 µM)
3 | O=C(NCCN1CCN(C(=O)NC(C(=O)N[C@H]2Cc3ccc(F)c(C(=O)O)c3OB2O)c2cc(F)c(O)c(O)c2Cl)C(=O)C1=O)Nc1ccc(O)cc1 (stereo partly drawn) [Example 219, (3R)-3-(2-(2-chloro-5-fluoro-3,4-dihydroxyphenyl)-2-(4-(2-(3-(4-hydroxyphenyl)ureido)ethyl)-2,3-dioxopiperazine-1-carboxamido)acetamido)-7-fluoro-2-hydroxy-3,4-dihydro-2H-benzo[e][1,2]oxaborinine-8-carboxylic acid] | < 1 µg/mL | 8 to 16 µg/mL (≈ 10.5 to 21 µM) | > 250 µM | < 1 µg/mL | < 10 µM | 16 to 32 µg/mL (≈ 21 to 42.1 µM) | > 64 µg/mL | < 1 µg/mL
4 | O=C(NCCN1CCN(C(=O)NC(C(=O)N[C@H]2Cc3ccc(F)c(C(=O)O)c3OB2O)c2cc(F)c(O)c(O)c2Cl)C(=O)C1=O)Nc1cccc(O)c1 (stereo partly drawn) [Example 220, (3R)-3-(2-(2-chloro-5-fluoro-3,4-dihydroxyphenyl)-2-(4-(2-(3-(3-hydroxyphenyl)ureido)ethyl)-2,3-dioxopiperazine-1-carboxamido)acetamido)-7-fluoro-2-hydroxy-3,4-dihydro-2H-benzo[e][1,2]oxaborinine-8-carboxylic acid] | < 1 µg/mL | 2 to 4 µg/mL (≈ 2.63 to 5.26 µM) | > 250 µM | < 1 µg/mL | < 10 µM | > 64 µg/mL | > 64 µg/mL | < 1 µg/mL
5 | O=C(NCCN1CCN(C(=O)N[C@@H](C(=O)N[C@H]2Cc3ccc(F)c(C(=O)O)c3OB2O)c2cc(F)c(O)c(O)c2Cl)C(=O)C1=O)Nc1ccncc1 [Example 221, (R)-3-((R)-2-(2-chloro-5-fluoro-3,4-dihydroxyphenyl)-2-(2,3-dioxo-4-(2-(3-(pyridin-4-yl)ureido)ethyl)piperazine-1-carboxamido)acetamido)-7-fluoro-2-hydroxy-3,4-dihydro-2H-benzo[e][1,2]oxaborinine-8-carboxylic acid] | < 1 µg/mL | 2 to 4 µg/mL (≈ 2.68 to 5.36 µM) | > 250 µM | < 1 µg/mL | < 10 µM | > 64 µg/mL | > 64 µg/mL | < 1 µg/mL
6 | O=C(NCCN1CCN(C(=O)N[C@@H](C(=O)N[C@H]2Cc3ccc(F)c(C(=O)O)c3OB2O)c2cc(F)c(O)c(O)c2Cl)C(=O)C1=O)Nc1cccnc1 [Example 222, (R)-3-((R)-2-(2-chloro-5-fluoro-3,4-dihydroxyphenyl)-2-(2,3-dioxo-4-(2-(3-(pyridin-3-yl)ureido)ethyl)piperazine-1-carboxamido)acetamido)-7-fluoro-2-hydroxy-3,4-dihydro-2H-benzo[e][1,2]oxaborinine-8-carboxylic acid] | < 1 µg/mL | 2 to 4 µg/mL (≈ 2.68 to 5.36 µM) | > 250 µM | < 1 µg/mL | < 10 µM | > 64 µg/mL | > 64 µg/mL | < 1 µg/mL
7 | CN(CCN1CCN(C(=O)NC(C(=O)N[C@H]2Cc3ccc(F)c(C(=O)O)c3OB2O)c2cc(F)c(O)c(O)c2Cl)C(=O)C1=O)S(=O)(=O)c1ccc(C(N)=O)cc1 (stereo partly drawn) [Example 223, (3R)-3-(2-(4-(2-((4-carbamoyl-N-methylphenyl)sulfonamido)ethyl)-2,3-dioxopiperazine-1-carboxamido)-2-(2-chloro-5-fluoro-3,4-dihydroxyphenyl)acetamido)-7-fluoro-2-hydroxy-3,4-dihydro-2H-benzo[e][1,2]oxaborinine-8-carboxylic acid] | < 1 µg/mL | 8 to 16 µg/mL (≈ 9.72 to 19.4 µM) | > 250 µM | < 1 µg/mL | < 10 µM | 16 to 32 µg/mL (≈ 19.4 to 38.9 µM) | > 64 µg/mL | < 1 µg/mL
8 | CN(CCN1CCN(C(=O)NC(C(=O)N[C@H]2Cc3ccc(F)c(C(=O)O)c3OB2O)c2cc(F)c(O)c(O)c2Cl)C(=O)C1=O)S(=O)(=O)c1cccc(C(N)=O)c1 (stereo partly drawn) [Example 224, (3R)-3-(2-(4-(2-((3-carbamoyl-N-methylphenyl)sulfonamido)ethyl)-2,3-dioxopiperazine-1-carboxamido)-2-(2-chloro-5-fluoro-3,4-dihydroxyphenyl)acetamido)-7-fluoro-2-hydroxy-3,4-dihydro-2H-benzo[e][1,2]oxaborinine-8-carboxylic acid] | < 1 µg/mL | 8 to 16 µg/mL (≈ 9.72 to 19.4 µM) | > 250 µM | < 1 µg/mL | < 10 µM | > 64 µg/mL | > 64 µg/mL | < 1 µg/mL
9 | CN(CCN1CCN(C(=O)N[C@@H](C(=O)N[C@H]2Cc3ccc(F)c(C(=O)O)c3OB2O)c2cc(F)c(O)c(O)c2Cl)C(=O)C1=O)Cc1cccc(C(N)=O)c1 [Example 225, (R)-3-((R)-2-(4-(2-((3-carbamoylbenzyl)(methyl)amino)ethyl)-2,3-dioxopiperazine-1-carboxamido)-2-(2-chloro-5-fluoro-3,4-dihydroxyphenyl)acetamido)-7-fluoro-2-hydroxy-3,4-dihydro-2H-benzo[e][1,2]oxaborinine-8-carboxylic acid] | < 1 µg/mL | 2 to 4 µg/mL (≈ 2.59 to 5.18 µM) | > 250 µM | < 1 µg/mL | 10 to 50 µM | 16 to 32 µg/mL (≈ 20.7 to 41.4 µM) | > 64 µg/mL | < 1 µg/mL
10 | CN(CCN1CCN(C(=O)N[C@@H](C(=O)N[C@H]2Cc3ccc(F)c(C(=O)O)c3OB2O)c2cc(F)c(O)c(O)c2Cl)C(=O)C1=O)Cc1ccc(C(N)=O)cc1 [Example 226, (R)-3-((R)-2-(4-(2-((4-carbamoylbenzyl)(methyl)amino)ethyl)-2,3-dioxopiperazine-1-carboxamido)-2-(2-chloro-5-fluoro-3,4-dihydroxyphenyl)acetamido)-7-fluoro-2-hydroxy-3,4-dihydro-2H-benzo[e][1,2]oxaborinine-8-carboxylic acid] | < 1 µg/mL | 2 to 4 µg/mL (≈ 2.59 to 5.18 µM) | > 250 µM | < 1 µg/mL | < 10 µM | 16 to 32 µg/mL (≈ 20.7 to 41.4 µM) | > 64 µg/mL | < 1 µg/mL
